Source: patent US10858386B2, “Drug compound and purification methods thereof” (Otsuka Pharmaceutical Co., Ltd., priority 2017, dated 2020)
Values joined by “and” are separate entries in the source; they are usually repeats but may differ in a detail not shown here. Equal entries are not always repeated.

What was measured:
Format in all cases: physicochemical
[1] = Reconstitution time of the lyophilized product in the diluent (65% propylene glycol, 25% glycerin, 10% ethanol); settings: 1 mL diluent
Excerpt: (§1) The requirements of a constituted solution are that there is no visible insoluble material and the solution is no less clear than the diluent after a predetermined amount of time. The volume for reconstitution can return the product to the same volume and concentration as the bulk solution used for filling or may be the volume intended for patient delivery in a clinical setting.
For reconstitution, a specified volume of a diluent can be drawn up into a syringe. The diluent can then be extruded into the center of the dried cake of the product and the timer started. The product is then inspected at approximately 5 second intervals to determine the time material dissolved.
Reconstitution was performed by extruding 1 mL of diluent into each vial using a vial adapter or syringe and allowing the vials to sit undisturbed until clear.
(§2) Following lyophilization, the lyophilized samples were analysed for purity (% purity by HPLC), DMSO residual content, and residual moisture. The samples were reconstituted by dissolving them in the non-aqueous solvent system described in TABLE 11 below and the reconstitution time and appearance of the reconstituted formulations were analysed.

[2] = Turbidity of pooled reconstituted samples (Hach 2100AN turbidimeter, NTU)
Excerpt: Turbidity monitors the transmission of light through a liquid sample to determine whether the sample is clear or the degree of opalescence in the sample. The analysis can be performed using a Hach Model 2100AN Laboratory Turbidimeter. The Hach Model 2100AN is a ratio turbidimeter that uses the ratio of transmitted to scattered light to reduce error in the measurement caused by colored solutions.
Prior to each use, the Turbidimeter is calibrated with a Hach StabCal® Calibration Kit and then checked using Hach Gelex® Secondary Turbidity Standards. Sample cells are cleaned and oiled to reduce interference by dirt or imperfections in the glass. Sample cell indexing matches cells with similar interference for sample comparison.
Reconstituted samples can be pooled to achieve at least 2.5 mL of sample, which is placed in the indexed sample cells for analysis. The turbidimeter measures the opalescence and returns a value in nephelometric turbidity units (NTU) ratio. This value was recorded by the instrument with a time and date stamp to track each sample.

[3] = Thermogravimetric analysis (TGA) weight loss of the lyophilized product
Excerpt: TGA can be used as a corroborative method for residual moisture determination where the change in weight is attributed to the evolution of volatile substances, such as water. In addition, TGA can be used to deter mine physico-chemical changes as the specimen begins to decompose at elevated temperatures.
TGA monitors the change in weight of a material as a function of temperature or time with heating. The analysis can be performed using a TA Instruments QSO per USP 891, Thermal Analysis. Test parameters and data analysis can conducted using TA Instruments Universal Analysis® software version 4.5A on a PC interface.
Solid material, with a weight of about 13 mg to about 19 mg, can be placed in an open ceramic sample pan. The sample is then heated from 25° C. to 400° C. using a warming rate of about 10° C. per minute to measure the weight loss across the temperature range. Nitrogen, NF is used to purge the sample continuously at a flow rate of 60 mL/minute. The instrument is calibrated at temperatures that span the range of high temperature analysis.
The lyophilized material is warmed and the sample weight can be monitored for any change. During warming, weight loss is correlated to the evolution of volatile components in the sample. Calculations identify the sample weight correlated to a temperature.

[4] = Appearance of the reconstituted solution
Description: as §1, §2

[5] = Example 8 Study E: low shelf temperature, low chamber pressure, 15 microns in secondary drying
[6] = Example 8 Study F: target parameters of TABLE 18
[7] = Example 8 Study E, 3 pooled samples per lot

Row | SMILES | Average Recon Time (min) [1, 5] | Average Recon Time (min) [1, 6] | Turbidity (NTU) [2, 7] | Weight Loss (% w/w), Total (TGA) ([3]; Example 8 Study F) | Weight Loss (% w/w), Total (TGA) ([3]; Example 8 Study G, one vial) | Average Recon Time [1, 6] [min] | Turbidity (NTU) ([2]; Example 8 Study G, 3 pooled samples) | Appearance of reconstituted solution ([4]; Example 7, lyophilization procedure of TABLE 16) | Appearance of reconstituted solution ([4]; Example 8 Study A) | Appearance of reconstituted solution ([4]; Example 8 Study B) | Appearance of reconstituted solution ([4]; Example 8 Study C) | Appearance of reconstituted solution ([4]; Example 8 Study D) | Appearance of reconstituted solution ([4]; Example 8 Study E) | Appearance of reconstituted solution ([4]; Example 8 Study F) | Appearance of reconstituted solution ([4]; Example 8 Study G) | Appearance of reconstituted solution ([4]; Example 8 Study H) | Appearance of reconstituted solution ([4]; Example 8 repeat of Study H) | TGA total weight loss ([3]; Example 2 full load, TABLE 6 cycle) [%] | Weight Loss (% w/w), Total (TGA) ([3]; Example 8 Study B, vial 1 and 2) | TGA mass loss ([3]; Example 8 repeat of Study H, one vial)
1 | Nc1ncn(C2CC(OP(=O)([O-])OCC3OC(n4cnc5c(=O)[nH]c(N)nc54)CC3O)C(CO)O2)c(=O)n1.[Na+] (stereo not drawn) [Lot 1] | Lot 1: 17 min | Lot 1: 17.3 min | 0.799 NTU and 0.833 NTU and 0.756 NTU | Total: 18.93 % w/w | Total: 16.7 % w/w | – | – | – | – | – | – | – | – | – | – | – | – | – | – | –
2 | Nc1ncn(C2CC(OP(=O)([O-])OCC3OC(n4cnc5c(=O)[nH]c(N)nc54)CC3O)C(CO)O2)c(=O)n1.[Na+] (stereo not drawn) [Lot 2] | Lot 2: 17 min | Lot 2: 18 min | 0.795 NTU and 0.808 NTU and 0.867 NTU | Total: 19.82 % w/w | – | – | – | – | – | – | – | – | – | – | – | – | – | – | – | –
3 | Nc1ncn([C@H]2CC(OP(=O)(O)OC[C@H]3O[C@@H](n4cnc5c(=O)[nH]c(N)nc54)CC3O)[C@@H](CO)O2)c(=O)n1 (stereo partly drawn) [compound of Formula (1)] | – | – | below 3 NTU | approximately 19 % w/w | approximately 17 % w/w | 17 to 18 | 16.9 NTU and 16 NTU and 19 NTU | clear reconstituted solution | clear and colorless solutions | clear and colorless solutions | clear and colorless solutions | clear and colorless solutions | clear and colorless solutions | clear and colorless solutions | clear and colorless solutions | clear and colorless solutions | clear and colorless solutions | 17 | 17.35 % w/w and 18.07 % w/w | about 17 % w/w
